{"source": "patent US20050085645A1", "about": "“O-(3-chloropropenyl) hydroxylamine free base” (priority 2003, published 2005)", "key": {"plants": {"test_system": "plants", "assay": "Herbicidal potency of clethodim enantiomer versus racemate", "assay_type": "in vivo", "conditions": "used in a herbicidal composition; no test data given"}, "[1]": {"assay": "Solubility / miscibility in water", "assay_type": "physicochemical"}, "[2]": {"assay": "Storage stability of CPHA free base and CPHA-HCl solutions (decomposition / GC purity drop)", "assay_type": "physicochemical", "description": "Neither preparation nor applications of solvent-free CPHA free base or aqueous CPHA solution has been reported in the prior art. […] For example, a commercial 40% CPHA-HCl solution decomposes by 52% after 23 days at 35° C., whereas, a 85% CPHA aqueous solution has only 1.1% purity drop after 78 days at 40° C.\nThe GC method set up for CPHA purity, impurity profile, and hydroxylamine content determination is described as follows. • Instrument: HP 6890 series GC system. • Column: HP-1 capillary column, 10 m×0.53 mm×[…]. • Detector: FID, 250° C. • Inlet: 200° C. • Oven Temperature program: • Initial temperature: 40° C. • Initial time: 2 minutes. • Ramps: 10° C./min, 65° C., 0 minutes • 20° C./min, 250° C., 3 minutes.\nWeigh about 2.00 g of sample in a vial containing 2.20 g of cyclohexanone; Add 50% sodium hydroxide if necessary to bring pH to above 9. Stir the mixture in the capped vial at 50° C. for 2 hours. After cooling, add 8.0 g of dichloromethane and shake for one minute. Settle the mixture for 5 minutes. Take the organic phase for gas chromatographic (GC) analysis. CPHA purity and impurity profile are directly based on GC area. Hydroxylamine content is calculated based on the integration area of cyclohexanone oxime (cyclohexanoxime) peak and O-(chloro-2-propenyl)cyclohexanoxime peak."}, "[3]": {"assay": "Solubility in organic solvents", "assay_type": "physicochemical", "conditions": "ethers, alcohol, toluene, chlorinated alkanes", "description": "For example, to make a O-(3-chloro-2-propenyl)hydroxylamine solution in dichloromethane, CPHA is simply mixed with dichloromethane. No exotherm was observed."}}, "data": [{"smiles": "CCSC(C)CC1CC(=O)C(/C(CC)=N/OC/C=C/Cl)=C(O)C1", "note": "(single isomer, unassigned; (-)) [(−) clethodim]", "values": [{"measurement": "potency compared to the racemic form or (+) clethodim", "setting": "plants", "result": "increased potency"}]}, {"smiles": "NOCC=CCl", "note": "[CPHA, O-(3-Chloro-2-propenyl)hydroxylamine]", "values": [{"measurement": "miscibility with water", "setting": "[1]; room temperature", "result": "miscible with water"}, {"measurement": "purity drop", "setting": "[2]; 85% CPHA aqueous solution, after 78 days at 40° C.", "result": 1.1, "unit": "%"}, {"measurement": "solubility in organic solvents", "setting": "[3]", "result": "soluble in many organic solvents"}]}, {"smiles": "Cl.NOCC=CCl", "note": "[CPHA-HCl, O-(3-chloro-2-propenyl)hydroxylamine hydrochloride, reference compound]", "values": [{"measurement": "maximum solubility", "setting": "[1]; commercially available CPHA-HCl solution in water", "result": "about 45%"}, {"measurement": "decomposition of solution", "setting": "[2]; commercial 40% CPHA-HCl solution, after 23 days at 35° C.", "result": 52, "unit": "%"}]}]}
